Assay results: patent US20130053434A1, “IRREVERSIBLE INHIBITORS USEFUL FOR THE TREATMENT OF KINASE-RELATED PATHOLOGIES” (CENTRE NATIONAL DE LA RECHERCHE SCIENTIFIQUE, priority 2009, published 2013)

What was measured:
plasma half-life = format: in vitro ADME
[1] = test system: orthotopically implanted RENCA-LN cells; test: orthotopic murine renal cell carcinoma (RENCA) model, in vivo efficacy; conditions: for tumor growth by bioluminescence and primary tumor volume: 20 mg/kg i.p.
Experimental: RENCA-LN cells were obtained and cultured as described above. Sixty female BALB/c mice of 5 to 6 weeks were orthotopically implanted RENCA-LN cells into the left kidney (4×10^5 cells in 25 μl aliquots into the subcapsular space through a flank incision, Day 0). The mice were randomly divided into 5 groups of 12 mice each. On day 2, therapy was initiated. Animals in the vehicle control group (group 1) received 10 ml/kg Vehicle (PBS w/o Ca/Mg, 10% DMSO, 40% PEG-300) i.p. once daily until day 19. Animals of positive control group (group 2) received 40 mg/kg Sunitinib (Sutent®) p.o. once daily until day 20. Animals of treatment group 3 and 4 received 20 mg/kg of 3 once daily and every other day respectively (i.p.). Animals of treatment group 5 received 20 mg/kg of 5 once daily (i.p.). Due to partial weight loss, therapy in Groups 3 and 5 was suspended on days 11 and 12 and stopped on day 17. On day 20, the study was terminated and a necropsy performed. All animals were weighted, anaesthetised by isoflurane and killed by exsanguination. Two animals in group 1 were found dead on day 19 and 1 animal in group 3 and 5 on day 11 and 9 respectively. At necropsy, primary tumor weight and volume, lung weight and number of lung metastases were determined. Primary tumor tissues were collected and divided into two parts. One part of each tumor was snap-frozen in liquid nitrogen and stored at −80° C. whereas the other part was analyzed via ex vivo bioluminescence imaging. During the course of the study, the growth of the orthotopically implanted RENCA tumors was monitored on days 7, 14 and 19 using in vivo bioluminescence imaging. For this purpose, luciferin was injected intraperitoneally (i.p.) into the mice and light emission was measured post injection (10 min) using a NightOWL LB 981 bioluminescence imaging system (Berthold Technologies, Germany). The migration of RENCA tumor cells into the lung (metastasis) was analyzed post necropsy by counting nodules and using the luciferase assay. For this purpose, lungs were collected, homogenized, and assayed for luciferase activity using the kit from Promega (E1501) according to the manufacturer's instructions. Protein concentrations were determined using a Bradford assay and used to normalize luciferase activities (except for the primary tumor). A histological examination of the tumor vasculature was performed. For this purpose, cryosections of primary tumor tissues (thickness=5-10 μm) from the snap-frozen portion of the organ and blood vessels were visualized by immunohistochemical staining for CD 31 (PECAM-1; PharMingen, San Diego, Calif.). […] Statistical analysis of efficacy data was done using the Mann Whitney test.

dose finding study = format: in vivo
Text: (§1) As a bench mark, the natural product LL Z-1640-2 was also included in the assay. […] Compound 3 and 5 were selected as prototypical examples of modified RALs for further investigations. As described in the method section, both of these compounds derived from a common synthetic intermediate and can be readily prepared in gram quantities. […] Primary tumor weight confirmed these observations. A key objective of this study was to measure the effect of these compounds on metastasis. Upon termination of the study, the lungs were inspected for metastatic nodules and the ex-vivo luciferase activity of lung homogenates was measured. […] It should be noted that these compounds were also shown to inhibit the inflammation pathways which have been implicated in facilitating metastasis.

[2] = solubility in aqueous buffers; format: physicochemical; conditions: compared with 5
Text: as §1

RENCA-LN cells = test: RENCA cell proliferation assay; format: cell-based, Murine
Experimental: Murine RENCA cells were originally obtained from a tumor that arose spontaneously in the kidney of BALB/c mice. Histologically, RENCA consists of granular cell type adenocarcinoma, which is pleomorphic with large nuclei. To obtain RENCA-LN, RENCA cells were transduced using a retrovirus encoding a luciferase-neomycin fusion protein and selected using 1 mg/ml G418. RENCA-LN cells were plated with 1.500 cells/150 μl/well in DMEM supplemented with 10% FCS in 96 well culture dishes. The following day the serial diluted test samples (from 1 mM to 0.1 μM in DMSO) were mixed with medium (1:25) and 50 μl of the mix was added to each well of the cultured cells (1:4) resulting in a final DMSO concentration of 1%. Cells were grown for 72 h at 10% CO2 and 37° C. After 72 h RENCA-LC cells were lysed in 100 μL luciferase assay buffer, and 10 μl of the lysate was assayed for luciferase activity. The mean value of the low controls of each 96 well cell culture plate represents the background which was subtracted from all other data points of the respective plate. Raw data were converted into percent proliferation relative to the high control, which were set to 100%. […] determination was done with GraphPad Prism 5.01 software with constrain of bottom to 0 and top to 100 using a nonlinear regression curve fit with variable hill slope. The equation is a four-parameter logistic equation. […]

VEGFRs = test: KinomeScan kinase selectivity profile (50 kinases): VEGFRs; format: binding; conditions: 1 μM
Text: The selectivity profile was measure using the KinomeScan™ technology (http://www.kinomescan.com/) based on active-site dependent competition binding assay (Karaman, M. W., et al. (2008) Nat. Biotechnol. 26, 127-32; Fabian, M. A., et al. (2005) Nat. Biotechnol. 23, 329-36). Compounds 3 and 5 were profiled against a panel of 50 kinases including 42 kinases from the group of 48 kinases predicted by Santi et al. (Schirmer, A., et al. (2006) Proc. Natl. Acad. Sci. USA 103, 4234-9) to be targeted by hypothemycin and 5 mutants of FLT3 as well as 3 mutants of KIT. Both compounds were assayed at 1 μM. The results are expressed as a percentage of signal between a negative (DMSO) and positive (know binder) control [(test compound−positive control)/([…])×100].

[3] = isomerization of the enone under acid deprotection conditions; format: physicochemical; conditions: prolonged reaction times
Text: The synthesis commenced with the straightforward conversion of ester 5 into fluoroenal 7 via aldehyde 6 relying on a Horner-Wadsworth-Emmons reaction with triethyl 2-fluoro-2-phosphonoacetate to install the desired E-fluoroenoal (FIG. 19). Reaction of aldehyde 7 with […] afforded the desired alcohol as a 1:1 diasteromeric mixture which was reduced to the cis-alkene using Lindlar's catalyst (H2, Pd/CaCO3) to afford compound 9. As the hydroxyl group will ultimately be oxidized to the ketone, the lack of selectivity is inconsequential. Benzoyl protection of alcohol 9 thus afforded 10 wherein the terminal OPMB was converted to an iodide 11 (DDQ; I2, PPh3, imidazole). Attempts to engage this compound in alkylation chemistry with a phenol led to rapid elimination of the iodide to give a conjugated triene (product not shown). To circumvent this elimination which was thought to be facilitated by the presence of the alkene, compound 10 was dihydroxylated (2.5:1 dr in favor of the desired isomer 12) and converted to acetonide 13. Conversion of the terminal protected PMB ether into an iodide afforded the key intermediate 14. Following previously established chemistry, fragment 14 was coupled to the aromatic moiety 15 bearing a benzylic selenide by alkylation followed by oxidation/elimination of the selenide to afford 17. […]

VEGFR2 [4] = target: T1, VEGFR2 (Homo sapiens, UniProt P35968); test: cellular inhibition of VEGFR2; format: cell-based; conditions: triplicate
Experimental: FIG. 21. […] Assays were performed in triplicate.
To gage the undiscriminate reactivity of these enone resorcylic acids with thiols, fluoroenone 2 and the parent analogue lacking the fluoride were treated with one equivalent of DTT (2 mM) as a prototypical thiol nucleophile in PBS (pH 7.4) containing 1% DMSO. […] With fluoroenone 1 and 2 in hand, we tested their efficacy against VEGF-R2 which was frequently found to be the most inhibited kinase in our profile of cis-enone resorcylic acid library (Dakas, P. Y., et al. (2007) Angew. Chem. Int. Ed. Engl. 46, 6899-902; Jogireddy, R., et al. (2009) Chem. Eur. J. 15, 11498-506) and KIT which represents a less inhibited kinase. […] Their cellular activity against VEGF-R2 did parallel the biochemical activity. […] During the course of our investigation, a similar modification was reported by researchers from Esai (Du, H., et al. (2009) Bioorg. Med. Chem. Lett. 19, 6196-9) however, their medicinal chemistry efforts focused the inhibition of inflammation related pathways (MEKs and their down-stream regulatory effect on cytokines) (Du, H., et al. (2009) Bioorg. Med. Chem. Lett. 19, 6196-9; Goto, M., et al. (2009) J. Pharmacol. Exp. Ther. 331, 485-95). […]

VEGFR2 [5] = target: T1, VEGFR2; test: biochemical inhibition of VEGF-R2; conditions: FIG. 20
Experimental: It should be noted that as these compounds are expected to be irreversible inhibitors, the measured IC50 will depend on the procedure used and caution should be applied in comparing data from experiments performed under different conditions. To obtain a value which best reflects the rate of inactivation, the substrate and inhibitor were added simultaneously to the kinase solution. The data is shown in FIG. 9 (kinases have been ranked from the highest to least inhibited). As evident from FIG. 9, there is very little difference in relative selectivity of kinase inhibition throughout the library under these conditions. […] Overall, the trend of structure activity relationship which emerged from this screen is that the chiral methyl group at the ester position, while not essential, does provide higher activity (entry 6 vs. 10, 7 vs. 11 and 8 vs. 12). Substitution at the adjacent position with a hydroxyl group (entry 14 vs. 7) or at the β-position of the enone with a methyl abrogated activity (15-19). […] The trend of activity for the three natural products can be ranked as follows: alkene=epoxide>alkane. […] The two modifications of R^2 tested were beneficial in certain combinations. For example, the extra hydroxyl group present in fragment i does afford a significant (10 fold) gain of activity (8 vs. 7) in combination with fragment a. […]

ERK2 = ERK2 (Homo sapiens, UniProt P28482); conditions: covalent Michael adduct with cys166; cited from earlier work
[6] = in vivo; cited from earlier work
colon and lung tumors = conditions: mice bearing colon and lung tumors; cited from earlier work
[7] = reactivity with DTT as prototypical thiol nucleophile; format: physicochemical; conditions: one equivalent of DTT (2 mM), PBS pH 7.4, 1% DMSO
Experimental: To gage the undiscriminate reactivity of these enone resorcylic acids with thiols, fluoroenone 2 and the parent analogue lacking the fluoride were treated with one equivalent of DTT (2 mM) as a prototypical thiol nucleophile in PBS (pH 7.4) containing 1% DMSO. […] With fluoroenone 1 and 2 in hand, we tested their efficacy against VEGF-R2 which was frequently found to be the most inhibited kinase in our profile of cis-enone resorcylic acid library (Dakas, P. Y., et al. (2007) Angew. Chem. Int. Ed. Engl. 46, 6899-902; Jogireddy, R., et al. (2009) Chem. Eur. J. 15, 11498-506) and KIT which represents a less inhibited kinase. […] Their cellular activity against VEGF-R2 did parallel the biochemical activity. […] During the course of our investigation, a similar modification was reported by researchers from Esai (Du, H., et al. (2009) Bioorg. Med. Chem. Lett. 19, 6196-9) however, their medicinal chemistry efforts focused the inhibition of inflammation related pathways (MEKs and their down-stream regulatory effect on cytokines) (Du, H., et al. (2009) Bioorg. Med. Chem. Lett. 19, 6196-9; Goto, M., et al. (2009) J. Pharmacol. Exp. Ther. 331, 485-95). […] It was further shown that the addition of a methyl substituent at the δ position to the enone enhanced the metabolic stability with a tolerable loss of activity (10 fold) (Du, H., et al. (2009) Bioorg. Med. Chem. Lett. 19, 6196-9). […]

MEK1 = MEK1 (Homo sapiens, UniProt Q02750); conditions: cited from earlier work
Chain of MEK1 (Q02750 whole entry): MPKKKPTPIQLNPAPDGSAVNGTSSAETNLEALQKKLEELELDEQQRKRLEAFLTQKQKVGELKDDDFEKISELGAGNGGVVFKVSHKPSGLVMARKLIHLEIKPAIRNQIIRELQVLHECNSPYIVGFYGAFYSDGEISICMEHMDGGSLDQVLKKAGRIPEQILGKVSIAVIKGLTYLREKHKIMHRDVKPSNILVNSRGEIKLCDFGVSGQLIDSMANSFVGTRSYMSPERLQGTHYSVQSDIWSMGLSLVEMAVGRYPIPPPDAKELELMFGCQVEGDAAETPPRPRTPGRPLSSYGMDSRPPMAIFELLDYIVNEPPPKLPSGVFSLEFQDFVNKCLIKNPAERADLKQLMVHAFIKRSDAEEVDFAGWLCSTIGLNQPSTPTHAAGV

T1 sequence (P35968 20-1356, species assumed): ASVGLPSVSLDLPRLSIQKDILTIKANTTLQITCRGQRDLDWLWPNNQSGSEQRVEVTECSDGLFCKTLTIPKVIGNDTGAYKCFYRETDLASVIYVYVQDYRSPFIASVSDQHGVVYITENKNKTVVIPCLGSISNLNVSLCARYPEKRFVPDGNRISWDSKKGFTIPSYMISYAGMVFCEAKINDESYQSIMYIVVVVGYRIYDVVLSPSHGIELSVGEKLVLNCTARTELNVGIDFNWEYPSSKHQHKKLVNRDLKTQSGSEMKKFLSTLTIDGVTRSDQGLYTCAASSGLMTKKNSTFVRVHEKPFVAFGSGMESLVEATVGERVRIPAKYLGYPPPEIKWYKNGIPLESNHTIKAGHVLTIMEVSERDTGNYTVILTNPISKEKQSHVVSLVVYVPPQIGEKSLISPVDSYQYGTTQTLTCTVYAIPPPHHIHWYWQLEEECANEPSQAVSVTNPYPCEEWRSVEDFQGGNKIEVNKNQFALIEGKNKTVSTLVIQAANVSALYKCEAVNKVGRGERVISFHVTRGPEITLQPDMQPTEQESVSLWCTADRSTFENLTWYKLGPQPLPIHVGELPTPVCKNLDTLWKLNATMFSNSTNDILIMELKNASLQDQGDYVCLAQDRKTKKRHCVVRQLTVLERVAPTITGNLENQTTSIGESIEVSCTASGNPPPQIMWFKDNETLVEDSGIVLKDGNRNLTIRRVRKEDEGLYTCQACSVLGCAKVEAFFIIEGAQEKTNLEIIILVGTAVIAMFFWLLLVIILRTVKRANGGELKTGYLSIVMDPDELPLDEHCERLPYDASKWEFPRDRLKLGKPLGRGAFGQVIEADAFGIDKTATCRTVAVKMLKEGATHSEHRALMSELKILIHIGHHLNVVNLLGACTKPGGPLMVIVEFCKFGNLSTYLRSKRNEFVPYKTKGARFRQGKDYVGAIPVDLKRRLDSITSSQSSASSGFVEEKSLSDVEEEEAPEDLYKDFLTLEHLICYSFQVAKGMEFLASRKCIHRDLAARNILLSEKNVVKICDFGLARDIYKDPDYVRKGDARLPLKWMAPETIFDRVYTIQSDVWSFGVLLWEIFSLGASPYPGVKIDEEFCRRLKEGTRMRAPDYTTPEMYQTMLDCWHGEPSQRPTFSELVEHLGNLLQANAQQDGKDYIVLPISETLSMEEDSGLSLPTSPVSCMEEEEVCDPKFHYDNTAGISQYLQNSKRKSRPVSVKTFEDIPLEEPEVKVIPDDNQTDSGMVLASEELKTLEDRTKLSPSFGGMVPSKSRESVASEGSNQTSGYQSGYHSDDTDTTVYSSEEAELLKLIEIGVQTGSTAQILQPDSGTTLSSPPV
Chain of ERK2 (P28482 whole entry, species assumed): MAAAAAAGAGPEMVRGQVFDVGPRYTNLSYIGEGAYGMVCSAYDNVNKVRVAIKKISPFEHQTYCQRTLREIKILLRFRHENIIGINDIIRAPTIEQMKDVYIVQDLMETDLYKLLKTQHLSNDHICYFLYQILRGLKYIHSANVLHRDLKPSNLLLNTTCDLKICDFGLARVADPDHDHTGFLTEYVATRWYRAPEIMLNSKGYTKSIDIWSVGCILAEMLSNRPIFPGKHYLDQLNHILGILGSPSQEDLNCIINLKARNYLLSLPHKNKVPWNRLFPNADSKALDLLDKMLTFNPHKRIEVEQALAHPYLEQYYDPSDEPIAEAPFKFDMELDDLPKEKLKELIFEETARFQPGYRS

C[C@H]1C/C=C\C(=O)[C@@H](O)[C@@H](O)CCOc2cc(O)cc(O)c2C(=O)O1 [1agh]
plasma half-life (plasma half-life): short plasma half life
tumor vasculature histology (CD-31 staining), angiogenesis ([1]; 20 mg, q1d): strong inhibition of angiogenesis
tumor growth in mice ([1]; 20 and 10 mg/kg): clear reduction in tumor growth
tumor growth by bioluminescence and primary tumor volume ([1]; administered every other day): marginal decrease activity
animal weights decrease ([1]; between day 2 and day 5, q1d): 8%
lung metastasis (metastatic nodules) ([1]; compared with untreated group, lungs inspected at termination): A similar result
tumor growth by bioluminescence and primary tumor volume ([1]; daily dosing): highly significant reduction of tumor growth
luciferase activity from lung homogenates ([1]; ex vivo, compared with untreated group): A similar result
tolerability (dose finding study; 25 mg/kg): tolerated
toxicity at high dose (dose finding study; 75 mg/kg): systemic toxicity
solubility in aqueous buffers [2]: notably more soluble in aqueous buffers than 5
efficacy in inhibiting renal carcinoma cell line compared with natural product LL Z-1640-2 (RENCA-LN cells; FIG. 14): as effective as the natural product
IC50 (RENCA-LN cells; Mus musculus, Renca, FIG. 12, read-out: IC50, renal carcinoma line (RENCA)): 100 to 500 nM
inhibition of VEGFRs in kinase profile (VEGFRs): strongly inhibited

C[C@H]1C/C=C(/F)C(=O)[C@@H](O)[C@@H](O)C/C=C/c2cc(O)cc(O)c2C(=O)O1 [fluoroenone 1]
isomerization (epimerization) of the fluoroenone [3]: no trace of isomerization was observed
IC50 (VEGFR2 [4]): 17 nM
IC50 (VEGFR2 [5]): 6.8 nM

COc1cc(O)c2c(c1)[C@H]1O[C@@H]1C[C@H](O)[C@H](O)C(=O)/C=C\C[C@H](C)OC2=O [hypothemycin]
inactivation of ERK2 (ERK2): irreversibly inactivates ERK2
efficacy in animal models [6]: effective in animal models
tumor growth inhibition (colon and lung tumors): only modest growth inhibition

C[C@H]1C/C=C(/F)C(=O)[C@@H](O)[C@@H](O)CCOc2cc(O)cc(O)c2C(=O)O1 [fluoroenone 2]
IC50 (VEGFR2 [5]): 60.5 nM
reactivity with DTT compared with parent analogue lacking the fluoride [7]: reacting slower

CCNc1cc(O)c2c(c1)/C=C/C[C@H](O)[C@H](O)C(=O)/C=C\[C@@H](C)[C@H](C)OC2=O [E6201]
selectivity for MEK1 relatively to PDGFRβ (MEK1): > 200 fold
